Measured values: paper PMC4959752, “Pharmacokinetics in Wistar Rats of 5-[(4-Carboxybutanoyl)Amino]-2-Hydroxybenzoic Acid: A Novel Synthetic Derivative of 5-Aminosalicylic Acid (5-ASA) with Possible Anti-Inflammatory Activity” (PLoS ONE, 2016)
“And” between values parts separate entries of the source, which are not always exact repeats. Equal values may be shown once. “Also recorded” adds a separate entry of the source.

Columns and labels:
[1] = Blood-plasma partitioning (BP ratio); type: in vitro ADME, Wistar rats; settings: Wistar rat blood, 37°C, 4 h
Method: […] The plasma was separated from blood samples, and the concentration of C2 was determined based on a standard curve prepared with blank plasma using the RP-HPLC method. […] The concentration of C2 in blood cells was assumed to be equal to its unbound concentration in the plasma.

[2] = Tissue distribution study; type: in vivo, Wistar rats
Method: […] The animals were sacrificed 10, 30, 90, 180 and 360 min after dosing (n = 3 per treatment time). The whole brain, heart, liver, spleen, lung, kidney, stomach, small intestine, colon, testicles and muscle were rapidly dissected, harvested and thoroughly rinsed in ice-cold saline to eliminate blood and other content. All tissues and organs were weighed on an analytical balance and immediately processed for analysis. Each tissue sample was homogenized with saline solution at a 1:3 (wt/v) ratio. The preparation process for analysis was the same as that described above for plasma.

[3] = Stability of C2 in rat plasma samples; type: in vitro ADME; settings: for Difference respect the nominal concentration (%): rat plasma deproteinized samples
Method: The stability of C2 in plasma was evaluated using the QC samples at two concentrations by triplicate ([…]); these samples were stored at 25°C for 12, 24 and 36 h (short-term stability) and subjected to three freeze-thaw cycles (–20°C to 25°C). The post-preparative storage was evaluated by analyzing the ready-to-inject samples that had been refrigerated 4°C for 12, 24 and 36 h. The concentration of C2 after each storage period was related to the initial concentration of freshly prepared and immediately processed samples [40, 41].

MPO = system: MPO; set-up: method as in ref 34 = [34]; 34 Gutiérrez Sánchez M , Rosales-Hernández MC , Padilla-Martínez II , Correa-Basurto J , Mendieta-Wejebe JE . In vivo evaluation of two 5-aminosalicylic acid derivatives considered as potential therap; settings: model of inflammation in the mouse ear; cited from earlier work

## O=C(O)CCCC(=O)Nc1ccc(O)c(C(=O)O)c1 [C2, 5-[(4-carboxybutanoyl)amino]-2-hydroxybenzoic acid]
[1]; 5 μg/mL
  BP ratio ± SD: 0.71 and 0.71 ± 0.01
[1]; 10 μg/mL
  BP ratio ± SD: 0.6 and 0.60 ± 0.03
[2]; Wistar rats, i.g. and i.p.
  crossing of blood-brain barrier / hemato-testicular barrier (presence in brain and testicles): effectively crossed the blood-brain barrier and hemato-testicular barrier; also recorded: able to cross the blood brain barrier
[2]; i.g. and i.p. routes, before the 2 h time point
  tissue distribution: widely distributed in all examined tissues
[2]; single intragastric or oral dose (100 mg/kg), Wistar rats, 100 mg/kg
  tissue distribution: distributed and detected in all examined tissues (including the brain and colon); also recorded: well distributed in all tissues
[3]; Refrigeration (4°C), 12 h, 1 μg/mL
  Difference respect the nominal concentration (%): 0.8%
[3]; Refrigeration (4°C), 12 h, 2.5 μg/mL
  Difference respect the nominal concentration (%): 1.5%
[3]; Refrigeration (4°C), 12 h, 25 μg/mL
  Difference respect the nominal concentration (%): 0.1%
[3]; Refrigeration (4°C), 12 h, 100 μg/mL
  Difference respect the nominal concentration (%): 0.5%
[3]; Refrigeration (4°C), 24 h, 1 μg/mL
  Difference respect the nominal concentration (%): 2.2%
[3]; Refrigeration (4°C), 24 h, 2.5 μg/mL
  Difference respect the nominal concentration (%): 2.6%
[3]; Refrigeration (4°C), 24 h, 25 μg/mL
  Difference respect the nominal concentration (%): 3.1%
[3]; Refrigeration (4°C), 24 h, 100 μg/mL
  Difference respect the nominal concentration (%): 0.4%
[3]; Refrigeration (4°C), 36 h, 1 μg/mL
  Difference respect the nominal concentration (%): 5.3%
[3]; Refrigeration (4°C), 36 h, 2.5 μg/mL
  Difference respect the nominal concentration (%): 2.9%
[3]; Refrigeration (4°C), 36 h, 25 μg/mL
  Difference respect the nominal concentration (%): 4.3%
[3]; Refrigeration (4°C), 36 h, 100 μg/mL
  Difference respect the nominal concentration (%): 0.6%
[3]; Room Temperature (25°C), 12 h, 1 μg/mL
  Difference respect the nominal concentration (%): 1.4%
[3]; Room Temperature (25°C), 12 h, 2.5 μg/mL
  Difference respect the nominal concentration (%): 1.0%
[3]; Room Temperature (25°C), 12 h, 25 μg/mL
  Difference respect the nominal concentration (%): 0.3%
[3]; Room Temperature (25°C), 12 h, 100 μg/mL
  Difference respect the nominal concentration (%): 0.3%
[3]; Room Temperature (25°C), 24 h, 1 μg/mL
  Difference respect the nominal concentration (%): 2.1%
[3]; Room Temperature (25°C), 24 h, 2.5 μg/mL
  Difference respect the nominal concentration (%): 2.3%
[3]; Room Temperature (25°C), 24 h, 25 μg/mL
  Difference respect the nominal concentration (%): 2.9%
[3]; Room Temperature (25°C), 24 h, 100 μg/mL
  Difference respect the nominal concentration (%): 0.7%
[3]; Room Temperature (25°C), 36 h, 1 μg/mL
  Difference respect the nominal concentration (%): 5.8%
[3]; Room Temperature (25°C), 36 h, 2.5 μg/mL
  Difference respect the nominal concentration (%): 2.6%
[3]; Room Temperature (25°C), 36 h, 25 μg/mL
  Difference respect the nominal concentration (%): 3.7%
[3]; Room Temperature (25°C), 36 h, 100 μg/mL
  Difference respect the nominal concentration (%): 1.7%
[3]; freeze–thaw (–20 to 25°C), Cycle 2 (24 h), 1 μg/mL
  Difference respect the nominal concentration (%): 2.7%
[3]; freeze–thaw (–20 to 25°C), Cycle 2 (24 h), 2.5 μg/mL
  Difference respect the nominal concentration (%): 2.9%
[3]; freeze–thaw (–20 to 25°C), Cycle 2 (24 h), 25 μg/mL
  Difference respect the nominal concentration (%): 1.7%
[3]; freeze–thaw (–20 to 25°C), Cycle 2 (24 h), 100 μg/mL
  Difference respect the nominal concentration (%): 0.5%
[3]; freeze–thaw (–20 to 25°C), Cycle 3 (36 h), 1 μg/mL
  Difference respect the nominal concentration (%): 6.0%
[3]; freeze–thaw (–20 to 25°C), Cycle 3 (36 h), 2.5 μg/mL
  Difference respect the nominal concentration (%): 5.1%
[3]; freeze–thaw (–20 to 25°C), Cycle 3 (36 h), 25 μg/mL
  Difference respect the nominal concentration (%): 1.7%
[3]; freeze–thaw (–20 to 25°C), Cycle 3 (36 h), 100 μg/mL
  Difference respect the nominal concentration (%): 0.6%
[3]; freeze–thaw (–20 to 25°C), cycle 1 (12 h), 1 μg/mL
  Difference respect the nominal concentration (%): 1.8%
[3]; freeze–thaw (–20 to 25°C), cycle 1 (12 h), 2.5 μg/mL
  Difference respect the nominal concentration (%): 1.8%
[3]; freeze–thaw (–20 to 25°C), cycle 1 (12 h), 25 μg/mL
  Difference respect the nominal concentration (%): 2.0%
[3]; freeze–thaw (–20 to 25°C), cycle 1 (12 h), 100 μg/mL
  Difference respect the nominal concentration (%): 0.5%
[3]; stored at 4°C and 25°C for 36 h
  stability in rat plasma: stable
MPO
  effect on catalytic activity of MPO: inhibited the catalytic activity of MPO
